{"source": "patent US8974824B2", "about": "“Lanthanum composition” (Mylan Laboratories Ltd., priority 2008, dated 2015)", "origin": "cited, not measured here", "details": "pH range of 3 to 5 in gastric fluid; Lanthanum in two-fold molar excess to phosphate"}
{"molecule": "[La]", "note": "[Lanthanum]", "values": [{"measurement": "available phosphate bound", "value": "approximately 97%"}]}
